Source: the CheMixHub viscosity set

Experiment: xn = mol fraction of the nth substance listed

ClC(Cl)(Cl)Cl + COCCO
viscosity [mPa·s], 100 kPa
Conditions	x1 = 0.0831	x1 = 0.1694	x1 = 0.2591	x1 = 0.3523	x1 = 0.4494	x1 = 0.5504	x1 = 0.6557	x1 = 0.7655	x1 = 0.8802
298.15 K	1.569	1.49	1.412	1.335	1.26	1.186	1.114	1.043	0.9736
303.15 K	1.392	1.328	1.265	1.202	1.171	1.079	1.019	0.9601	0.902
308.15 K	1.24	1.188	1.137	1.111	1.036	0.9853	0.9601	0.8863	0.8376
313.15 K	1.108	1.067	1.025	0.9841	0.9429	0.9015	0.8608	0.8201	0.7796

CCCOC(C)=O + COCCOCCOCCOCCOC
viscosity [mPa·s], 101 kPa
Conditions	298.15 K	308.15 K	318.15 K
x1 = 0.01	3.323	2.605	2.085
x2 = 0.0066	0.564	0.496	0.445
x2 = 0.0294	0.602	0.529	0.471
x2 = 0.0477	0.633	0.554	0.494
x2 = 0.0676	0.67	0.585	0.519
x2 = 0.103	0.746	0.64	0.562
x2 = 0.1448	0.825	0.716	0.619
x2 = 0.1941	0.93	0.794	0.689
x2 = 0.2422	1.049	0.881	0.757
x2 = 0.2932	1.161	0.978	0.834
x2 = 0.3625	1.343	1.12	0.943
x2 = 0.4204	1.504	1.234	1.038
x2 = 0.4781	1.663	1.364	1.139
x2 = 0.5293	1.827	1.472	1.22
x2 = 0.5986	2.014	1.633	1.345
x2 = 0.6621	2.209	1.784	1.458
x2 = 0.7157	2.378	1.924	1.559
x2 = 0.7802	2.61	2.074	1.679
x2 = 0.8069	2.687	2.142	1.737
x2 = 0.8324	2.77	2.203	1.78

ClC(Cl)(Cl)Cl + COc1ccccc1
viscosity [mPa·s], 101 kPa
Conditions	x2 = 0.105	x2 = 0.2013	x2 = 0.3026	x2 = 0.3956	x2 = 0.5023	x2 = 0.5968	x2 = 0.699	x2 = 0.797	x2 = 0.8998
298.15 K	0.9408	0.9425	0.9493	0.9547	0.9644	0.9745	0.9834	0.9896	0.9961
303.15 K	0.8895	0.8842	0.8852	0.8927	0.9013	0.9054	0.9147	0.919	0.926
308.15 K	0.8268	0.8263	0.8279	0.8326	0.8397	0.8446	0.8502	0.8547	0.858
313.15 K	0.7762	0.7751	0.7851	0.7777	0.7837	0.7864	0.7919	0.7946	0.7981

CCOC(=O)c1ccccc1O + CS(C)=O
303.15 K, 101 kPa
Conditions	viscosity [mPa·s]
x1 = 0.0499	1.888
x1 = 0.1687	2.196
x1 = 0.2404	2.294
x1 = 0.3226	2.533
x1 = 0.4179	2.57
x1 = 0.5265	2.723
x1 = 0.6564	2.843

ClC(Cl)(Cl)Cl + CS(C)=O
Conditions	viscosity [mPa·s]
298 K, 101.3 kPa, x1 = 0.1093	2.001
298 K, 101.3 kPa, x1 = 0.226	1.852
298 K, 101.3 kPa, x1 = 0.4246	1.654
298 K, 101.3 kPa, x1 = 0.5746	1.5
298 K, 101.3 kPa, x1 = 0.6402	1.399
298 K, 101.3 kPa, x1 = 0.8661	1.067
303.15 K, 101.33 kPa, x1 = 0.2642	1.553
303.15 K, 101.33 kPa, x1 = 0.3011	1.526
303.15 K, 101.33 kPa, x1 = 0.3924	1.483
303.15 K, 101.33 kPa, x1 = 0.4763	1.391
303.15 K, 101.33 kPa, x1 = 0.5118	1.358
303.15 K, 101.33 kPa, x1 = 0.5664	1.304
318 K, 101.3 kPa, x1 = 0.114	1.312
318 K, 101.3 kPa, x1 = 0.2398	1.25
318 K, 101.3 kPa, x1 = 0.424	1.139
318 K, 101.3 kPa, x1 = 0.5763	1.035
318 K, 101.3 kPa, x1 = 0.8096	0.8725
